The text below walks through data of US20230312643A1, “PEPTIDE DERIVATIVE WITH COLLAGENASE INHIBITORY ACTIVITY, AND USE THEREOF” (SUNMARINE BIOTECH, priority 2020, published 2023).

Data set [1] has as its target T1, elastase (Sus scrofa, UniProt P00772).
T1 construct: purchased Invitrogen
Briefly: Elastase inhibitory activity (EnzChek Elastase Assay Kit, DQ elastin). Format: biochemical. As for the experimental part: Elastase inhibitory activity was performed by purchasing EnzChek® Elastase Assay Kit (600 Assays) reagent from Invitrogen. First, DQ elastin stock solution (1 mg/ml) was prepared by adding 1.0 ml of DDW to 1 mg DQ elastin vial. The 18 ml of DDW was added to 2 ml of 10× reaction buffer, so as to dilute reaction buffer. Then, an elastase enzyme reagent was prepared, and diluted with reaction buffer to a final concentration of 0.2 U/ml as working solution. Three samples of 50 ? each were prepared in a 96-well plate. The 50 ? of reaction buffer was added to 50 ? of DQ elastin and sample blank, and 50 ? of working solution was added to a sample, which were then left in a light-blocked state at room temperature for about one hour, and then fluorescence intensity was measured at excitation wavelength 505 nm and emission wavelength 515 nm using ELISA plate reader (VICTOR X3™, PerkinElmer, US).
Copper peptide (Comparative Example 12) and EGCg (Comparative Example 13), which is widely used as a raw material for functional cosmetics, were prepared at the same concentration and used as a positive control.
EGCg (epigallocatechin gallate) is a kind of polyphenol, which is an extract of green tea leaves, and is used as a cosmetic raw material for anti-oxidation, inflammation reduction, and wrinkle alleviation, and Copper peptide is used as a raw material for promoting wound healing, strengthening skin elasticity, and increasing subcutaneous fat layer to suppress skin aging due to excellent skin regeneration ability.

Data set [2] is described as follows: HS68 cytotoxicity test (MTS cell viability). Format: cell-based. The settings on record: human, HS68 cells (skin fibroblasts). As for the experimental part: (§1) Skin fibroblast HS68 cells were used. The medium was DMEM high glucose (SH30243.01, HyClone™, Logan, UT, USA) medium containing 10% fetal bovine serum (FBS, Lonza, Valais, Switzerland) medium. The cell lines were cultured in an incubator adjusted to 95% humidity, 5% CO2 and 37° C., and at this time, a medium antibiotic (Penicillin streptomycin, Gibco, Calif., USA) was used to suppress contamination or proliferation of microorganisms.
(§2) Cell viability was measured using MTS (CellTiter 96® AQueous One Solution Cell Proliferation Assay, Promega, USA) reagent. The cells were divided at a concentration of 1×10^4 cells/well in a 96-well plate and then stabilized for 24 hours in an incubator controlled to 95% humidity, 5% CO2 and 37° C. After that, the samples were treated for each concentration and cultured for 24 hours in an incubator controlled to 95% j humidity, 5% CO2 and 37° C. After the medium was removed, 9 ml of medium (DMEM high, free FBS) was added to 1 ml of the reagent and diluted, and then 100 ul of the diluted solution was treated per well. After the reaction at 37° C. for 60 minutes, absorbance was measured at 490 nm with microplate reader (Molecular Devices, VersaMax ELISA Microplate Reader, USA). Cell viability was represented by absorbance of a sample-treated group compared to a control group not treated with the sample.

Data set [3] has as its system HS68 cells. Briefly: HS68 cytotoxicity test (MTS cell viability). The settings on record: HS68, 50 μg/ml, 24 hours. Format: cell-based. As for the experimental part: as §1, §2
The nature of data set [4]: HaCaT cytotoxicity test (MTS cell viability). The data set is classed as cell-based. The settings on record: human, HaCaT cells (skin epidermal cells). The method, then: HaCaT cells, skin epidermal cells (derived from human), were used. The medium was DMEM low (SH30021.01, HyClone™, Logan, UT, USA) medium containing 10% fetal bovine serum (FBS, Lonza, Valais, Switzerland) medium. The cell lines were cultured in an incubator adjusted to 95% humidity, 5% CO2 and 37° C., and at this time, a medium antibiotic (Penicillin streptomycin, Gibco, Calif., USA) was used to suppress contamination or proliferation of microorganisms. When the cells covered the dish about 80%, the cells were washed with phosphated-buffered saline-EDTA (PBS-EDTA), and then the cells attached to the bottom of the dish were detached by treating with 1 ml of 0.05% trypsin EDTA, and subjected to subculture. The medium was exchanged every 48 hours to culture the cells.
as §2, with “each concentration (table 1) and cultured” for “each concentration and cultured”, “to 95% humidity, 5%” for “to 95% j humidity, 5%”, “medium (DMEM low, free FBS)” for “medium (DMEM high, free FBS)”

Molecules are shown by their SMILES.

T1 sequence (P00772 27-266): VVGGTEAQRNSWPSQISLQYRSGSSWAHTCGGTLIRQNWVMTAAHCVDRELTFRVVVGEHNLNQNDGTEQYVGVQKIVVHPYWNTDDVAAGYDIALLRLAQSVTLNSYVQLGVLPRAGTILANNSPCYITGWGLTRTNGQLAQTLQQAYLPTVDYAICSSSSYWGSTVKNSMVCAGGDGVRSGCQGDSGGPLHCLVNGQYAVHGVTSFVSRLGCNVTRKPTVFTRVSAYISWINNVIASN

For `CN1CCC[C@H]1C(=O)NCC(=O)N[C@@H](CC(N)=O)C(=O)O` [Me-PGN], in data set [1] (0.02 mg/ml), the inhibition at 20 µg/mL was 5.2 ± 1.7%. The compound further displayed an inhibition at 40 µg/mL in data set [1] (0.04 mg/ml) of 6.9 ± 1.8%. In addition, the inhibition at 60 µg/mL in data set [1] (0.06 mg/ml) is 9.9 ± 1.5%. The inhibition at 100 µg/mL in data set [1] (0.1 mg/ml) was found to be 11.2 ± 1.1%. In data set [1] (1 mg/ml), this compound came in with an inhibition at 1000 µg/mL of 11.2%. Moreover, the viability at 24 h, 1 µg/mL in data set [2] (HS68, 1 μg/ml) turned out to be 103 ± 3.9%; in data set [4] (1 μg/ml) it was 125 ± 6.1%. Besides, the viability at 24 h, 10 µg/mL in data set [2] (HS68, 10 μg/ml) was 104 ± 4.5%; in data set [4] (10 μg/ml), 127 ± 6.5%. Moreover, the viability at 24 h, 100 µg/mL is 104 ± 5.6% in data set [2] (HS68, 100 μg/ml) and 126 ± 14.8% in data set [4] (100 μg/ml). Also, the Cell viability in data set [3] was found to be 103 ± 3.4%. Also, the viability at 24 h, 50 µg/mL in data set [4] (50 μg/ml) is 122 ± 3.7%.

One may read the inhibition as the share of the control response that was lost under treatment. A lower inhibition goes with little suppression. What is called viability is a read-out of living cells in per cent, often relative to untreated cells.
